The source of these data is ChEMBL document CHEMBL5579790, “Development of novel β2-adrenergic receptor agonists for the stimulation of glucose uptake - The importance of chirality and ring size of cyclic amines” (Bioorg Med Chem Lett, 2024).

The target of the first assay is Beta-2 adrenergic receptor (Rattus norvegicus) (UniProt P10608). In words: Agonist activity at beta2-adrenergic receptor in rat L6 cells transfected with GLUT4 assessed as stimulation of skeletal muscle glucose uptake at 10 uM relative to isoprenaline. Format: functional, cell-based.
Sequence of Beta-2 adrenergic receptor (Rattus norvegicus) (P10608 whole entry, looked up): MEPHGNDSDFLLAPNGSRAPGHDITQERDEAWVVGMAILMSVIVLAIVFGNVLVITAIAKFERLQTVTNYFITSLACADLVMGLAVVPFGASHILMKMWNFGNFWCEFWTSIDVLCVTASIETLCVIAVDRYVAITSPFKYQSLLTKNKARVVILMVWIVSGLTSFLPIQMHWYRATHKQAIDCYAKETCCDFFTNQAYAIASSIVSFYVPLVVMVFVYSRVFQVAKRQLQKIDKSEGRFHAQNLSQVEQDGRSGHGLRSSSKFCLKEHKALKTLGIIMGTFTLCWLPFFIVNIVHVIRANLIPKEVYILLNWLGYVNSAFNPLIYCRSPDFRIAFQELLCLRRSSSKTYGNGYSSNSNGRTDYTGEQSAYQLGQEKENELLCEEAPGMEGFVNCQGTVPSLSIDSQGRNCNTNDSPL
Conditions: not given
Take `CCC[C@H]1CCCC[C@H]([C@@H](O)c2cccc(F)c2)N1`: the Activity worked out at 15%.

On to `CCCCNC[C@@H](O)c1cccc(F)c1`, for which the Activity was less than 10%. Same read-out and setting: in the case of `CCC[C@H]1CCCC[C@@H]([C@@H](O)c2cccc(F)c2)N1` it was 39%. On to `CCC[C@H](C)NC[C@@H](O)c1cccc(O)c1`, for which the Activity worked out at 32%. In the case of `CCC[C@H]1CC[C@H]([C@@H](O)c2cccc(F)c2)N1`, the Activity turned out to be 20%. On to `CCC[C@@H]1CCCC[C@H]([C@H](O)c2cccc(F)c2)N1`, for which the Activity is 39%. Still for that read-out and setting: as for `CCC[C@@H]1CCCC[C@@H]([C@@H](O)c2cccc(F)c2)N1`, the figure is less than 10%; as for `CCC[C@@H]1C[C@@H]([C@H](O)c2cccc(F)c2)N1`, 31%. Consider `CCC[C@@H]1CCCC[C@@H]([C@H](O)c2cccc(F)c2)N1`, for which the Activity turned out to be 12%. On the same count and under the same terms, as for `CCC[C@H]1C[C@H]([C@@H](O)c2cccc(F)c2)N1`, the figure is 37%; as for `CCC[C@H]1CCCC[C@@H]([C@H](O)c2cccc(F)c2)N1`, 19%. On the same count and under the same terms, in the case of `CCC[C@H]1CC[C@@H]([C@H](O)c2cccc(F)c2)N1` it was 27%; in that of `CCC[C@@H]1CCC[C@@H]([C@@H](O)c2cccc(F)c2)N1`, less than 10%. As for `CCCCNC[C@@H](O)c1cccc(O)c1`, the Activity is less than 10%. On the same count and under the same terms, in the case of `CCC[C@H]1C[C@@H]([C@H](O)c2cccc(F)c2)N1` it was 19%.

Still in this assay, the particulars now being: filed as agonist.
With `CCC[C@H]1CCC[C@@H]([C@@H](O)c2cccc(F)c2)N1`, the Activity came to 48%. Consider `CCC[C@@H](C)NC[C@@H](O)c1cccc(O)c1`, for which the Activity is 53%. Turning to `CCC[C@@H]1CCCC[C@H]([C@@H](O)c2cccc(F)c2)N1`, the Activity amounted to 52%. On the same count and under the same terms, as for `CCC[C@@H]1C[C@H]([C@H](O)c2cccc(F)c2)N1`, the figure is 103%; as for `CCC[C@H](C)NC[C@H](O)c1cccc(O)c1`, 79%; as for `CCC[C@H]1CCC[C@@H]([C@H](O)c2cccc(F)c2)N1`, 67%. Still for that read-out and setting: as for `CCC[C@@H](C)NC[C@H](O)c1cccc(O)c1`, the figure is 130%. Same read-out and setting: as for `CCC[C@@H]1CCC[C@H]([C@H](O)c2cccc(F)c2)N1`, the figure is 52%; as for `CCC[C@H]1CCCC[C@H]([C@H](O)c2cccc(F)c2)N1`, 47%; as for `CCC[C@H]1CCC[C@H]([C@H](O)c2cccc(F)c2)N1`, 54%. As for `CCC[C@@H]1CCC[C@H]([C@@H](O)c2cccc(F)c2)N1`, the Activity worked out at 50%. On to `CCC[C@@H]1CC[C@H]([C@H](O)c2cccc(F)c2)N1`, for which the Activity worked out at 110%. For `CCCCNC[C@H](O)c1cccc(F)c1`, the Activity came out at 57%. As for `CCC[C@@H]1CC[C@@H]([C@H](O)c2cccc(F)c2)N1`, the Activity was found to be 43%. Same read-out and setting: in the case of `CCC[C@@H]1CCC[C@@H]([C@H](O)c2cccc(F)c2)N1` it was 42%. `CCC[C@H]1C[C@@H]([C@@H](O)c2cccc(F)c2)N1`: the Activity worked out at 45%. The same measure, in the same setting: as for `CCC[C@H]1CC[C@H]([C@H](O)c2cccc(F)c2)N1`, the figure is 52%; as for `CCC[C@@H]1CC[C@@H]([C@@H](O)c2cccc(F)c2)N1`, 57%.

For the compound `CCC[C@H]1C[C@H]([C@H](O)c2cccc(F)c2)N1`, the Activity was found to be 72%. With `CCC[C@@H](C)NC[C@H](O)c1cccc(F)c1`, the Activity was found to be 90%. On the same count and under the same terms, in the case of `CCC[C@H]1CCC[C@H]([C@@H](O)c2cccc(F)c2)N1` it was 56%; in that of `CCCCNC[C@H](O)c1cccc(O)c1`, 63%; in that of `CCC[C@@H]1CC[C@H]([C@@H](O)c2cccc(F)c2)N1`, 41%.

With `CCC[C@H]1CC[C@@H]([C@@H](O)c2cccc(F)c2)N1`, the Activity was determined as 64%. Still for that read-out and setting: in the case of `CCC[C@@H]1C[C@@H]([C@@H](O)c2cccc(F)c2)N1` it was 47%; in that of `CCC[C@H](C)NC[C@H](O)c1cccc(F)c1`, 75%.

For the compound `CCC[C@@H]1C[C@H]([C@@H](O)c2cccc(F)c2)N1`, the Activity was 53%.
